Reference: patent US20240368139A1, “NOVEL MODULATORS OF EHMT1 AND EHMT2 AND THERAPEUTIC USE THEREOF” (Tango Therapeutics, Inc., priority 2021, published 2024)

Experiments:
H3K9me2 in HCT116 cells = assay: HCT116 H3K9me2 in-cell western assay; format: cell-based; details: Homo sapiens, HCT-116, 72 h, HCT116 cells, 72 hours incubation; read-out: H3K9me2 ICW IC50
Procedure, shortened: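 HCT116 cells (2,000/well) were treated for 72 h at 37° C, 5% CO2, with ten two-fold dilutions from 10 μM in duplicate. After PFA fixation, cells were stained overnight at 4° C with anti-H3K9me2, then with an 800 CW secondary plus DRAQ5.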

hERG potassium channels = hERG potassium channels (Homo sapiens, UniProt Q12809); assay: In vitro hERG assay (SyncroPatch whole-cell recording); details: hERG IC50, SyncroPatch, room temperature
Procedure: CHO cells stably expressing hERG potassium channels from Sophion Biosciences were used for this test. The cells were cultured in a humidified and air-controlled (5% CO2) incubator at 37° C.
The CHO hERG Culture Medium consisted of 500 mL Ham's F12 (Invitrogen), 50 mL FBS (HyClone), 1 mL G418/Geneticin (Invitrogen, and 1 mL Hygromycin B (Invitrogen)
The CHO cells which were at least two days after plating and more than 75% confluent would be used for experiments. Before testing, cells were harvested using TrypLE and resuspended in the physiological solution at the room temperature.
For the electrophysiological recordings the following solutions were used (Table 5). The physiological solution and external solution were prepared at least one month. The intracellular solution was prepared in batches aliquoted, and stored at 4° C. until used.
Test compounds were dissolved in 100% DMSO to obtain stock solutions for different test concentrations. Then the stock solutions were further diluted into external solution to achieve final concentrations for testing. Visual check for precipitation was conducted before testing. Final DMSO concentration in external solution was not more than 0.30% for the test compounds.
Voltage command protocol: From this holding potential of −80 mV, the voltage was first stepped to −50 mV for 80 ms for leak subtraction, and then stepped to +20 mV for 4800 ms to open hERG channels. After that, the voltage was stepped back down to −50 mV for 5000 ms, causing a “rebound” or tail current, which was measured and collected for data analysis. Finally, the voltage was stepped back to the holding potential (−80 mV, 1000 ms). This voltage command protocol was repeated every 20000 msec. This command protocol was performed continuously during the test (vehicle control and test compound).
hERG SyncroPatch assay was conducted at room temperature. The Setup, Prime Chip, Catch and Seal Cells, Amplifier Settings, Voltage and Application Protocols were established with Biomek Software (Nanion). One addition of 40 μL of the vehicle was applied, followed by 300s for a baseline period. Then the doses of the compounds were added with 40 μL. The exposure of test compound at each concentration was no less than 300s. […] Five concentrations (0.30 μM, 1.00 μM, 3.00 μM, 10.00 μM and 30.00 μM) were tested for each compound. Minimum 2 replicates per concentration were obtained.
Within each well recording, percent of control values were calculated for each test compound concentration current response based on peak current in presence of reference control (current response/peak current)×100%. The Dose-Response curves were fit to the standard Hill equation as shown below:
Where X is the logarithm of concentration, Ipost cpd/Ipre cpa is the normalized peak current amplitude, Top is 1 and Bottom is equal to 0.
Curve-fitting and IC50 calculations were performed by GraphPad Prism 5.0.

human EHMT1 982-1266 = molecular target: T1, human EHMT1 982-1266 (Homo sapiens, UniProt Q9H9B1); assay: EHMT1 enzyme assay on histone peptide substrate (3H-SAM SPA); details: EHMT1 IC50, recombinant human EHMT1 982-1266, histone peptide substrate
T1 sequence (Q9H9B1 982-1266): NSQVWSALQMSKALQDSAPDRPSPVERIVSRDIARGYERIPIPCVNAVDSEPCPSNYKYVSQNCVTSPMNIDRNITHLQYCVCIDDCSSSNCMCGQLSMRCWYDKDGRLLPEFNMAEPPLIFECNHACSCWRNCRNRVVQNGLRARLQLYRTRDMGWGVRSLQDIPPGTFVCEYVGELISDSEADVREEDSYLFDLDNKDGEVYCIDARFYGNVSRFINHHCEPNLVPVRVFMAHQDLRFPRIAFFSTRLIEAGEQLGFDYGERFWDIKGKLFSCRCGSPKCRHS

human EHMT2 913-1193 = molecular target: T2, human EHMT2 913-1193 (Homo sapiens, UniProt Q96KQ7); assay: EHMT2 enzyme assay on histone peptide substrate (3H-SAM SPA); details: EHMT2 IC50, recombinant human EHMT2 913-1193, histone peptide substrate
T2 sequence (Q96KQ7 913-1193): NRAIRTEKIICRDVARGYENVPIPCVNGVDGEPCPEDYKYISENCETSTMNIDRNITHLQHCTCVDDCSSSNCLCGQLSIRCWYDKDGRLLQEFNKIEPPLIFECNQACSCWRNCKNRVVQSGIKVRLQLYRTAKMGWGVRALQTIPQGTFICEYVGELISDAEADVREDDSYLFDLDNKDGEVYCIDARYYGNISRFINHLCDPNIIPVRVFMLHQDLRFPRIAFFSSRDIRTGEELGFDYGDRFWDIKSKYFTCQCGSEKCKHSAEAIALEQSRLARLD

hERG potassium channels, sequence (Q12809 whole entry): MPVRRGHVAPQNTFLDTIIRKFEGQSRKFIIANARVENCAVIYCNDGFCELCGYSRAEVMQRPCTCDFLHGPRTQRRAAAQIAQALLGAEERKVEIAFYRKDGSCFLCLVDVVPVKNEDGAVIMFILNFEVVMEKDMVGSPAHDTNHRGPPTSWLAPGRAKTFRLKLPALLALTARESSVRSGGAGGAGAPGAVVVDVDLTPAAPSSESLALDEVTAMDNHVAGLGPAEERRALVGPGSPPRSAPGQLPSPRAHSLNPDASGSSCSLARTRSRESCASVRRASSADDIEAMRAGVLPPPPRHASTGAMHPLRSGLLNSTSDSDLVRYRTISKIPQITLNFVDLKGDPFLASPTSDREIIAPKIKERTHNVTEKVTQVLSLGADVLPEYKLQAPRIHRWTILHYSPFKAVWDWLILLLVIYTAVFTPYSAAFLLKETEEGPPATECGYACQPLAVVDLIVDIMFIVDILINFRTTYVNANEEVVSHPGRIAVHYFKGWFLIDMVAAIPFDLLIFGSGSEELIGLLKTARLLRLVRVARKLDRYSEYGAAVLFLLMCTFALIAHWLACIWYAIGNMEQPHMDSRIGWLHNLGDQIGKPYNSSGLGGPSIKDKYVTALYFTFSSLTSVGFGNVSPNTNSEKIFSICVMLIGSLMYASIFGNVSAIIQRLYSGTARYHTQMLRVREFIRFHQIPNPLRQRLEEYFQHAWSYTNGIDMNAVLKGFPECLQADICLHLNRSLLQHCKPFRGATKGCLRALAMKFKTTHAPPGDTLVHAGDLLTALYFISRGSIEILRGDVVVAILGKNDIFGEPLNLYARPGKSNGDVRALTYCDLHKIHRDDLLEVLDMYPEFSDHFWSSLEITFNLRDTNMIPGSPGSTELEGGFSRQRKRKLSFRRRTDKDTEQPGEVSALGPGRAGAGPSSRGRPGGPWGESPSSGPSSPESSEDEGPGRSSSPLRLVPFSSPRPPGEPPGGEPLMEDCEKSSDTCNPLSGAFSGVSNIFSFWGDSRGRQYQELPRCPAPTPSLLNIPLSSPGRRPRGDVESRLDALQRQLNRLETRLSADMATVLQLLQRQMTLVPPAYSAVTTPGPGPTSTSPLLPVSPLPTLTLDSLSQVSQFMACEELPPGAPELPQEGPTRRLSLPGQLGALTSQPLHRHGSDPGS

Structure (SMILES)	IC50 (H3K9me2 in HCT116 cells)	IC50 (hERG potassium channels)	IC50 (human EHMT1 982-1266)	IC50 (human EHMT2 913-1193)
CNc1cc(C)nc(Nc2cc3c(c(OCCCN4CCCC4)c2)OCCC3)n1 [Compound 113, N4,6-dimethyl-N2-[8-(3-pyrrolidin-1-ylpropoxy)chroman-6-yl]pyrimidine-2,4-diamine]	0.1 to 0.5 µM	< 2 µM	0.1 to 0.5 µM	0.5 to 2 µM
CNc1cc(C)nc(Nc2cc3c(c(C4=CCNCC(O)C4)c2F)OCC3)n1 (centres unmarked) [Compound 179, 5-[6-fluoro-5-[[4-methyl-6-(methylamino)pyrimidin-2-yl]amino]-2,3-dihydrobenzofuran-7-yl]-2,3,4,7-tetrahydro-1H-azepin-3-ol]	< 0.1 µM	> 10 µM	< 0.1 µM	< 0.1 µM
CNc1ccnc(Nc2cc3c(c(C4=CCN(C)CCC4)c2)OCC3)n1 [Compound 331]	< 0.1 µM	> 10 µM	< 0.1 µM	0.1 to 0.5 µM
CNc1cc(C)nc(Nc2cc3c(c(C4=CCNCC(O)C4)c2F)OCC3)n1 (single isomer, unassigned) [Compound 373]	< 0.1 µM	> 10 µM	< 0.1 µM	< 0.1 µM
Cc1cc(NC2CCC2)nc(Nc2cc3c(c(C4=CCNCCC4)c2)OCC3)n1 [Compound 325]	0.1 to 0.5 µM	2 to 5 µM	< 0.1 µM	0.1 to 0.5 µM
CNc1cc(C)nc(Nc2cc3c(c(C4=CCNCCC4)c2)OCO3)n1 [Compound 137, N4,6-dimethyl-N2-[7-(2,3,4,7-tetrahydro-1H-azepin-5-yl)-1,3-benzodioxol-5-yl]pyrimidine-2,4-diamine]	< 0.1 µM	5 to 10 µM	< 0.1 µM	< 0.1 µM
CNc1cc(C)nc(Nc2cc3c(c(C4=CCNCCC4)c2Cl)OCCC3)n1 [Compound 175]	< 0.1 µM	5 to 10 µM	< 0.1 µM	< 0.1 µM
CNc1cc(C)nc(Nc2cc3c(c(C4=CCN(C)CCC4)c2)OCCO3)n1 [Compound 131, N4,6-dimethyl-N2-[5-(1-methyl-2,3,4,7-tetrahydroazepin-5-yl)-2,3-dihydro-1,4-benzodioxin-7-yl]pyrimidine-2,4-diamine]	< 0.1 µM	5 to 10 µM	< 0.1 µM	0.1 to 0.5 µM
CNc1cc(C)nc(Nc2cc3c(c(C4=CCNCCC4)c2Cl)OCC3)n1 [Compound 189, N2-[6-chloro-7-(2,3,4,7-tetrahydro-1H-azepin-5-yl)-2,3-dihydrobenzofuran-5-yl]-N4,6-dimethyl-pyrimidine-2,4-diamine]	< 0.1 µM	> 10 µM	< 0.1 µM	< 0.1 µM
CNc1cc(C)nc(Nc2cc3c(c(C4=CCN(C)CCC4)c2Cl)OCCC3)n1 [Compound 176]	< 0.1 µM	2 to 5 µM	< 0.1 µM	< 0.1 µM
CNc1cc(C)nc(Nc2cc3c(c(C4=CCNCCC4)c2)OC(F)(F)O3)n1 [Compound 142, N2-[2,2-difluoro-7-(2,3,4,7-tetrahydro-1H-azepin-5-yl)-1,3-benzodioxol-5-yl]-N4,6-dimethyl-pyrimidine-2,4-diamine]	0.1 to 0.5 µM	< 2 µM	< 0.1 µM	< 0.1 µM
CNc1cc(C)nc(Nc2cc3c(c(C4=CCNCCC4)c2)CCO3)n1 [Compound 332]	0.1 to 0.5 µM	> 10 µM	0.1 to 0.5 µM	0.1 to 0.5 µM
CNc1cc(C)nc(Nc2cc3c(c([C@H]4C[C@H]5CNC[C@H]5C4)c2)OCC3)n1 [Compound 157, N2-[7-(1,2,3,3a,4,5,6,6a-octahydrocyclopenta[c]pyrrol-5-yl)-2,3-dihydrobenzofuran-5-yl]-N4,6-dimethyl-pyrimidine-2,4-diamine]	0.1 to 0.5 µM	> 10 µM	0.1 to 0.5 µM	0.1 to 0.5 µM
CNc1cc(C)nc(Nc2cc3c(c(C4=CCNC(C)CC4)c2F)OCC3)n1 (single isomer, unassigned) [Compound 183]	< 0.1 µM	> 10 µM	< 0.1 µM	< 0.1 µM
CNc1cc(C)nc(Nc2cc3c(c(C4=CCNCCC4)c2F)OCCO3)n1 [Compound 191]	< 0.1 µM	2 to 5 µM	< 0.1 µM	< 0.1 µM
CNc1cc(C)nc(Nc2cc3c(c(C4=CCNCCC4)c2Cl)OCCO3)n1 [Compound 166, N2-[6-chloro-5-(2,3,4,7-tetrahydro-1H-azepin-5-yl)-2,3-dihydro-1,4-benzodioxin-7-yl]-N4,6-dimethyl-pyrimidine-2,4-diamine]	< 0.1 µM	< 2 µM	< 0.1 µM	< 0.1 µM
CNc1cc(C)nc(Nc2cc3c(c(C4C[C@@H]5CN(C)C[C@@H]5C4)c2)OCCO3)n1 (some centres unmarked) [Compound 329]	0.1 to 0.5 µM	> 10 µM	0.1 to 0.5 µM	0.5 to 2 µM
COCCNc1cc(C)nc(Nc2cc3c(c(C4=CCN(C)CCC4)c2F)OCC3)n1 [Compound 290]	< 0.1 µM	> 10 µM	< 0.1 µM	0.1 to 0.5 µM
CNc1ccnc(Nc2cc3c(c(C4=CCNCCC4)c2)OCC3)n1 [Compound 330]	< 0.1 µM	> 10 µM	< 0.1 µM	< 0.1 µM
CNc1cc(C(C)C)nc(Nc2cc3c(c(C4=CCNCCC4)c2)OCC3)n1 [Compound 326]	< 0.1 µM	2 to 5 µM	< 0.1 µM	< 0.1 µM
CNc1cc(C)nc(Nc2cc3c(c(C4=CCNC(C)CC4)c2Cl)OCC3)n1 (single isomer, unassigned) [Compound 374]	< 0.1 µM	> 10 µM	< 0.1 µM	< 0.1 µM
CNc1cc(C)nc(Nc2cc3c(c(C4=CCNCCC4)c2Cl)OCO3)n1 [Compound 160, N2-[6-chloro-7-(2,3,4,7-tetrahydro-1H-azepin-5-yl)-1,3-benzodioxol-5-yl]-N4,6-dimethyl-pyrimidine-2,4-diamine]	< 0.1 µM	5 to 10 µM	< 0.1 µM	< 0.1 µM
CNc1cc(C)nc(Nc2cc3c(c(C4=CCNCCC4)c2C)OCC3)n1 [Compound 188, N4,6-dimethyl-N2-[6-methyl-7-(2,3,4,7-tetrahydro-1H-azepin-5-yl)-2,3-dihydrobenzofuran-5-yl]pyrimidine-2,4-diamine]	< 0.1 µM	> 10 µM	< 0.1 µM	< 0.1 µM
CNc1cc(C)nc(Nc2cc3c(c(C4=CCNCCC4)c2)OCCO3)c1 [Compound 144, N4,6-dimethyl-N2-[5-(2,3,4,7-tetrahydro-1H-azepin-5-yl)-2,3-dihydro-1,4-benzodioxin-7-yl]pyridine-2,4-diamine]	0.1 to 0.5 µM	> 10 µM	0.1 to 0.5 µM	0.1 to 0.5 µM
CNc1cc(C)nc(Nc2cc3c(c(C4=CCNCCC4)c2F)OCC3C)n1 (single isomer, unassigned) [Compound 169]	< 0.1 µM	5 to 10 µM	< 0.1 µM	< 0.1 µM
COCCNc1cc(C)nc(Nc2cc3c(c(C4=CCNCCC4)c2)OCC3)n1 [Compound 327]	< 0.1 µM	> 10 µM	< 0.1 µM	< 0.1 µM
